We go through four substances from paper PMC4358367, “Structural basis of diverse membrane target recognitions by ankyrins” (eLife, 2014).

In one experiment the target is T1, AnkG R1-6 (Rattus norvegicus, UniProt O70511, DEL222-823).
T1 construct: thioredoxin-His6 (N); made in house; host or cells: Escherichia coli BL21 (DE3)
The experiment is described as follows: ITC binding to AnkG R1-6 truncation. As to conditions: 25°C, pH 7.5, one-site binding model. From the text:
(§1) The coding sequences of AnkB_repeats (residues 28–873) were PCR amplified using the full-length human 220 kDa AnkB as the template. The coding sequences of the AnkR constructs, including AnkR_repeats (residues 42–853), and the full length AnkR C-terminal domain (residues 1529–1907), were PCR amplified from a mouse muscle cDNA library. The coding sequence of AnkG_repeats (residues 38–855) were PCR amplified using the full-length rat 190 kDa AnkG as the template. The fusion construct of AnkR_AS and AnkB_repeats was made by standard two-step PCR with a coding sequence of thrombin recognition residues ‘GSLVPRGS’ as the linker. This construct was used to crystallize and determine the complex structure. The same strategy was used in making other fusion constructs, including the Nav1.2_ABD-C/AnkB_repeats_R1–9 fusion construct containing residues 1103–1129 from mouse Nav1.2 and human AnkB residues 28–318 followed by a capping sequence corresponding to the αB of R24 (residues 814–822) and the AnkR_AS/AnkG_repeats fusion construct. […]
(§2) Isothermal titration calorimetry (ITC) measurements were carried out on a VP-ITC MicroCal calorimeter (MicroCal, Northampton, MA) at 25°C. […] The titration data were analyzed using the program Origin 7.0 and fitted by the one-site binding model.

The next experiment addresses T2, AnkR_repeats (Mus musculus, UniProt Q02357).
T2 construct: thioredoxin-His6 (N); made in house; host or cells: Escherichia coli BL21 (DE3)
The experiment is described as follows: ITC binding to AnkR_repeats. As to conditions: VP-ITC, 25°C, 50 mM Tris, 100 mM NaCl, 1 mM EDTA, 1 mM DTT, pH 7.5, one-site binding model, ND = no detectable binding.
Text: as §1, §2

A further experiment deals with T3, AnkB_repeats WT (Homo sapiens, UniProt Q01484).
T3 construct: thioredoxin-His6 (N); made in house; host or cells: Escherichia coli BL21 (DE3)
T3 sequence (Q01484 28-873 isoform Q01484-2): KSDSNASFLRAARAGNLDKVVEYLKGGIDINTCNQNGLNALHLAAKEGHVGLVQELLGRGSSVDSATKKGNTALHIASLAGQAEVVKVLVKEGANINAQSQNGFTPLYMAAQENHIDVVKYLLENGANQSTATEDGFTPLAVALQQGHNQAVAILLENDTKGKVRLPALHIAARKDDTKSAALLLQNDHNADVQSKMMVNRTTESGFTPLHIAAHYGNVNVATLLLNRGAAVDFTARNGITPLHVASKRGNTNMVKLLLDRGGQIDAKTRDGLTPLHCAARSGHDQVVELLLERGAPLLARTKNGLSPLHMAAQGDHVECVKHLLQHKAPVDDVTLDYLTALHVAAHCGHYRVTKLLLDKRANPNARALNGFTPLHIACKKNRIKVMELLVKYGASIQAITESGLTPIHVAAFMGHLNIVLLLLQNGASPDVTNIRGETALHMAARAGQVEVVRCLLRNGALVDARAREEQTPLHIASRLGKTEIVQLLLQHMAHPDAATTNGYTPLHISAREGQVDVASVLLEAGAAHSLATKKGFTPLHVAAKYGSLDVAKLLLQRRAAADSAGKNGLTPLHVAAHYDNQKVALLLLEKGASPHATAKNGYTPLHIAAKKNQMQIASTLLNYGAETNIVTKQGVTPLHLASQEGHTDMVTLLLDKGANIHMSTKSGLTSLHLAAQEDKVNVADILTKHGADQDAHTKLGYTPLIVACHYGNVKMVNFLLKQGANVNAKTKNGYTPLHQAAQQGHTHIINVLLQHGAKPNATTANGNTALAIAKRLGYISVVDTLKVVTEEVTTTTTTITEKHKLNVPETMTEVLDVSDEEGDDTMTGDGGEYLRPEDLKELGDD
The experiment can be described thus: Fluorescence polarization binding to AnkB_repeats WT. Particulars: deduced from ANK repeats WT and site mutants.
Text: as §1, with “construct. For truncation mutations of ANK repeats constructs, the same capping sequence was added to the appropriate region of the C-terminus of each construct for protein stabilization.” for “construct.”
Fluorescence assays were performed on a PerkinElmer LS-55 fiuorimeter equipped with an automated polarizer at 25°C. […]
(Polarisation of emitted light reports the rotation of a fluorescent probe.)

The next experiment deals with T4, AnkG_repeats I267,L300Q (Rattus norvegicus, UniProt O70511, I277Q/L310Q).
T4 construct: thioredoxin-His6 (N); made in house; host or cells: Escherichia coli BL21 (DE3)
The experiment is described as follows: ITC binding to AnkG_repeats IL mutant (site 2). Particulars: in words.
Text: (§3) We next examined the interactions of AnkG_repeats with Nav1.2 and Nfasc using the structure of the ANK repeats/AS complex to design mutations specifically affecting each predicted site. […] To probe the binding sites of Nav1.2 and Nfasc on AnkG, we constructed AnkG_repeat mutants with the corresponding hydrophobic residues in binding site 1 (Phe131 and Phe164 in R4 and R5, termed ‘FF’), site 2 (Ile267 and Leu300 in R8 and R9; ‘IL’), and site 3 (Leu366, Phe399, and Leu432 in R11, R12, and R13; ‘LFL’) substituted with Gln (Figure 3D), and examined their binding to the two targets. […] The mutations in site 3 weakened ANK repeat binding to both targets (Figure 3F, Figure 3—figure supplement 3 and Figure 3—figure supplement 4). […] This conclusion is further supported by the binding of the two targets to various AnkG_repeat truncation mutants (Figure 3F, Figure 3—figure supplement 3 and Figure 3—figure supplement 4).
(§4) The coding sequences of AnkB_repeats (residues 28–873) were PCR amplified using the full-length human 220 kDa AnkB as the template. […]
as §2

Another experiment has as its target T5, AnkG_repeats F131,F164Q (Rattus norvegicus, UniProt O70511, F141Q/F174Q).
T5 construct: thioredoxin-His6 (N); made in house; host or cells: Escherichia coli BL21 (DE3)
The experiment can be described thus: ITC binding to AnkG_repeats FF mutant (site 1). Particulars: in words.
Text: as §3, §4, §2

The target of experiment [1] is T6, AnkG_repeats L366,F399,L432Q (Rattus norvegicus, UniProt O70511, F409Q/L376Q/L442Q).
T6 construct: thioredoxin-His6 (N); made in house; host or cells: Escherichia coli BL21 (DE3)
The experiment is described as follows: ITC binding to AnkG_repeats LFL mutant (site 3). As to conditions: in words.
Text: as §3, §4, §2

Experiment [2] deals with T7, AnkG_repeats (Rattus norvegicus, UniProt O70511).
T7 construct: thioredoxin-His6 (N); made in house; host or cells: Escherichia coli BL21 (DE3)
T7 sequence (O70511 38-855): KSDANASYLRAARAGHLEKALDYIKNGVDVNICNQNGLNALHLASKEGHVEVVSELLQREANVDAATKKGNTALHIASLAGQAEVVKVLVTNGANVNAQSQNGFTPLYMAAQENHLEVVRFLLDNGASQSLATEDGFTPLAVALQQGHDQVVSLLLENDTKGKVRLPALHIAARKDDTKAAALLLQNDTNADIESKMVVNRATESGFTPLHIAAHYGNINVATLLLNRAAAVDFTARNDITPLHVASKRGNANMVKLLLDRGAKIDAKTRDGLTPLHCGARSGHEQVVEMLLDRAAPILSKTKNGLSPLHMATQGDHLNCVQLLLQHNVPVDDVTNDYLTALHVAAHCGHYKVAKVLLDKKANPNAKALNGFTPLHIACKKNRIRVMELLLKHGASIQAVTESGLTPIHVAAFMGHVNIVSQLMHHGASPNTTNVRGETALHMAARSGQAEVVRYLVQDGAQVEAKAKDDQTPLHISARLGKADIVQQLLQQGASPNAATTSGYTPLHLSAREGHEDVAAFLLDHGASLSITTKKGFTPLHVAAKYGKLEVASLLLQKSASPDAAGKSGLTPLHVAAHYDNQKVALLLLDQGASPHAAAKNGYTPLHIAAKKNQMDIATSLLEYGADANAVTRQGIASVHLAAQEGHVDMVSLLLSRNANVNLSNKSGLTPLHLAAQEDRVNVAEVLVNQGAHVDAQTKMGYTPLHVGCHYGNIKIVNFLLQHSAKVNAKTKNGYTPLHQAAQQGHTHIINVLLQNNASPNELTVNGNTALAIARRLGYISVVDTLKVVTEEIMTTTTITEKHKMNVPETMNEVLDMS
The experiment can be described thus: Analytical gel filtration of AS-AnkG_repeats fusion with Nav1.2 or Nfasc ABD. The experiment is classed as binding. Particulars: Superose 12 10/300 GL, 50 mM Tris, 100 mM NaCl, 1 mM EDTA, 1 mM DTT, pH 7.5.
Text: as §1, with “construct. For truncation mutations of ANK repeats constructs, the same capping sequence was added to the appropriate region of the C-terminus of each construct for protein stabilization. Mouse Nav1.2 (NP_001092768.1) and mouse neurofascin (CAD65849.1) were used here for studying their interaction with ankyrins.” for “construct.”

The target of experiment [3] is T7, AnkG_repeats. The experiment is described as follows: ITC binding to AnkG_repeats WT. Particulars: deduced from site mutants and truncations.
Text: The coding sequences of AnkB_repeats (residues 28–873) were PCR amplified using the full-length human 220 kDa AnkB as the template. The coding sequences of the AnkR constructs, including AnkR_repeats (residues 42–853), and the full length AnkR C-terminal domain (residues 1529–1907), were PCR amplified from a mouse muscle cDNA library. The coding sequence of AnkG_repeats (residues 38–855) were PCR amplified using the full-length rat 190 kDa AnkG as the template. The fusion construct of AnkR_AS and AnkB_repeats was made by standard two-step PCR with a coding sequence of thrombin recognition residues ‘GSLVPRGS’ as the linker. This construct was used to crystallize and determine the complex structure. The same strategy was used in making other fusion constructs, including the Nav1.2_ABD-C/AnkB_repeats_R1–9 fusion construct containing residues 1103–1129 from mouse Nav1.2 and human AnkB residues 28–318 followed by a capping sequence corresponding to the αB of R24 (residues 814–822) and the AnkR_AS/AnkG_repeats fusion construct. For truncation mutations of ANK repeats constructs, the same capping sequence was added to the appropriate region of the C-terminus of each construct for protein stabilization. Mouse Nav1.2 (NP_001092768.1) and mouse neurofascin (CAD65849.1) were used here for studying their interaction with ankyrins. Peptides for mouse KCNQ2 (NP_034741.2, residues 826–845) and mouse Cav1.3 (NP_083257.2, residues 2134–2166) were commercially synthesized. For simplicity, we used human 220 kDa AnkB for the amino acid numbering throughout the manuscript. For the corresponding point mutations made on AnkG_repeats, each residue number should be increased by 10. All point mutations were created using the Quick Change site-directed mutagenesis kit and confirmed by DNA sequencing. […]
as §2

Where no end group is shown, it is not given here.

T2 sequence (Q02357 5-816): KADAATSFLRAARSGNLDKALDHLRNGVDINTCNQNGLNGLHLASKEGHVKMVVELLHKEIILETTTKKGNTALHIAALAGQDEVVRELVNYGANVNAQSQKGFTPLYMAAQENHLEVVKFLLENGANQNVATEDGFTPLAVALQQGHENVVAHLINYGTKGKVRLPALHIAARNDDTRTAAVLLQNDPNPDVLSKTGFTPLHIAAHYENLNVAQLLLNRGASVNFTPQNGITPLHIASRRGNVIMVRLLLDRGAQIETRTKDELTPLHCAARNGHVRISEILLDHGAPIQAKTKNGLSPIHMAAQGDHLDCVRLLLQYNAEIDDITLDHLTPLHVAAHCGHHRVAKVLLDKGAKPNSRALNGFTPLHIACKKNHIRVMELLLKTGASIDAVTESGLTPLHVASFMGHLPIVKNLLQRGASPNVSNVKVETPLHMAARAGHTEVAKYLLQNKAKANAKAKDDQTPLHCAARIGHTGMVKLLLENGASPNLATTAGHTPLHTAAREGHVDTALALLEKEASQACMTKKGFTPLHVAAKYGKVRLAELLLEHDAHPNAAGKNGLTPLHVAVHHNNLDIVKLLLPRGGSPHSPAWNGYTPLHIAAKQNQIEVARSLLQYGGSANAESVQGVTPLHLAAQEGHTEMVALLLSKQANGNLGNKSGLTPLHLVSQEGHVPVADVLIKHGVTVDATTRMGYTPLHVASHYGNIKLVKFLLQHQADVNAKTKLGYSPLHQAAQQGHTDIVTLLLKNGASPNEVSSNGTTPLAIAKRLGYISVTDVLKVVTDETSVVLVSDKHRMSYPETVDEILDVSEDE
T1 sequence (O70511 with tags, fused parts or gaps DEL222-823 limits assumed): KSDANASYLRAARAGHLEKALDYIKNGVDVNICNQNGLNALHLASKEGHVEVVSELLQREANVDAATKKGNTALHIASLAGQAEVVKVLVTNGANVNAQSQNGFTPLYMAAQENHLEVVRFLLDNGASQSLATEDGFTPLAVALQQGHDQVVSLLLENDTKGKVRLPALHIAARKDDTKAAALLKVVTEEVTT
T4 sequence (O70511 38-855 I277Q/L310Q): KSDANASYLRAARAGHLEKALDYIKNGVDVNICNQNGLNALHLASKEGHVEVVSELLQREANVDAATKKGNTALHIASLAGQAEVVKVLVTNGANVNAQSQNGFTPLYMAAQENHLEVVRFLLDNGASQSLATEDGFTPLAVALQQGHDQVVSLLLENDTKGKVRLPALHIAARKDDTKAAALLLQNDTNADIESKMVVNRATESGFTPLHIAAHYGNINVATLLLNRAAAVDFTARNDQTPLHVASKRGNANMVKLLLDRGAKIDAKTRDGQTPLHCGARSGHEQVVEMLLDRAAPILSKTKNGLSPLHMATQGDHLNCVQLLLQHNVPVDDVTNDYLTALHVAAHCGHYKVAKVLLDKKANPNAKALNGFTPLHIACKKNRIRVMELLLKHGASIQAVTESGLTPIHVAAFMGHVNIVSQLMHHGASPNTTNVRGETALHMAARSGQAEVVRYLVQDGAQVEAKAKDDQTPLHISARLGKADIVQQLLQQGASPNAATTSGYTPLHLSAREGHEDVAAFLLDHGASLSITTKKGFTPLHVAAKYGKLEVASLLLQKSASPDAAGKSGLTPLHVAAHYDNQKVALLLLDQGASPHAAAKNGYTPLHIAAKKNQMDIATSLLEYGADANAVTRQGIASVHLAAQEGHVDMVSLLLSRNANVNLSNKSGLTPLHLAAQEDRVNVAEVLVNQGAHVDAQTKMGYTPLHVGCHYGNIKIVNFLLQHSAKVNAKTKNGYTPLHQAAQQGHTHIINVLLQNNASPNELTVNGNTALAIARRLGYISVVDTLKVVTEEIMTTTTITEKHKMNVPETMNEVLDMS
T6 sequence (O70511 38-855 L376Q/F409Q/L442Q): as the sequence (O70511 38-855 I277Q/L310Q) above, with Q240I, Q273L, L339Q, F372Q, L405Q counted along it
T5 sequence (O70511 38-855 F141Q/F174Q): as the sequence (O70511 38-855 I277Q/L310Q) above, with F104Q, F137Q, Q240I, Q273L counted along it

Broadly, the Kd is a measure of binding affinity in units of concentration. Higher therefore signals lower affinity. As to “TVTVPIAVGESDFENLNTEEFSSESDM [ABD-C (1103 - 1129)]”, the dissociation constant (Kd) at AnkG R1-6 is 2300 ± 200 nM.

Take “CADQYWNEVAVIDAIPLAATEHDTMLEMSDMQVWSAGLTPSLVTAEDS [AnkR_AS]”: binding on AnkR_repeats was characterised by a dissociation constant (Kd) of 360 ± 20 nM.

For “FITC-Cav1.3 peptide: mouse Cav1.3 (NP_083257.2, residues 2134–2166), commercially synthesized (NGDMGPISHRQDYELQDFGPGYSDEEPDPGREE; also: FITC label; UniProt Q99246 2134-2166, looked up, fragment)”, the “ANK repeat sites used for binding” value in the experiment with AnkB_repeats WT was “primarily relies on site 2”.

Take “SDDSLVDYGEGGEGQFNEDGSFIGQYTV [Nfasc_ABD]”: on AnkG_repeats I267,L300Q, the “effect of site 2 mutations on binding” value is recorded as “significantly weakened”. Moreover, at AnkG_repeats F131,F164Q, the “effect of site 1 mutations on binding” value was “no impact”. Besides, the “effect of site 3 mutations on binding” value in experiment [1] is recorded as “weakened”. In addition, on AnkG_repeats [2], the “complex formation with AS-AnkG_repeats fusion protein” value is recorded as “No complex peaks formed”. Also, the “ANK repeat sites used for binding” value on AnkG_repeats [3] was “sites 2 and 3”.
